Laboratory results published in US6620831B2, “Indazoles substituted with 1,1-dioxoisothiazolidine useful as inhibitors of cell proliferation” (LG Life Sciences Ltd., priority 2000, dated 2003).
pIC50: −log10 of the molar value.

target: T1, CDK2/cyclin A (Homo sapiens, UniProt P24941); experiment: CDK2 inhibitory activity (CDK2/cyclin A, [gamma-32P] ATP, histon H1 or Rb protein substrate); type: biochemical; conditions: first IC50 column (c1) of Table 1
T1 construct: made in house; host or cells: insect ('worm') cells co-infected with baculoviruses
Text: CDK2 enzyme was obtained from either extract from the worm cell co-infected with baculovirus which expresses a CDK2 gene and baculovirus which expresses a cyclin A gene, or active enzyme purified therefrom. CDK4 was also obtained from either extract from the worm cell co-infected with baculovirus which expresses a CDK4 gene and baculovirus which expresses a cyclin D1 gene. As substrates, histon H1 or Rb protein was used for CDK2, and Rb protein for CDK4. The radioactive activities in substrates were determined by reacting compounds diluted with each concentration with a proper quantity of CDK2/cyclin A or CDK4/cyclin D1 and substrate protein, and [gamma-32P labeled] ATP, and then separating the substrates.
Inhibitory abilities of inhibitors according to the present invention for each enzyme activity were expressed as IC50 values, which were determined in accordance with the method as described above.

| SMILES | pIC50 |
| --- | --- |
| COc1cc(CC(=O)Nc2n[nH]c3ccc(N4CCCS4(=O)=O)cc23)cc(OC)c1 [Compound 71, 2-(3,5-dimethoxyphenyl)-N-[5-(1,1-dioxo-1λ^6-isothiazolidin-2-yl)-1H-indazol-3-yl]acetamide] | > 7.30 |
| O=C(Cc1ccc(Cn2ccnc2)cc1)Nc1n[nH]c2ccc(N3CCCS3(=O)=O)cc12 [Compound 46, N-[5-(1,1-dioxo-1λ^6-isothiazolidin-2-yl)-1H-indazol-3-yl]-2-[4-(1H-imidazole-1-ylmethyl)phenyl]acetamide] | > 6.00 |
| CCOc1ccc(CC(=O)Nc2n[nH]c3ccc(N4CCCS4(=O)=O)cc23)cc1S(=O)(=O)N1CCN(C)CC1 [Compound 81, N-[5-(1,1-dioxo-1λ^6-isothiazolidin-2-yl)-1H-indazol-3-yl]-2-4-ethoxy-3-[(4-methyl-1-piperazinyl)sulfonyl]phenylacetamide] | > 6.00 |
| Nc1cccc(CC(=O)Nc2n[nH]c3ccc(N4CCCS4(=O)=O)cc23)c1 [Compound 21, 2-(3-aminophenyl)-N-[5-(1,1-dioxo-1λ^6-isothiazolidin-2-yl)-1H-indazol-3-yl]acetamide] | > 7.30 |
| O=C(Cc1ccc(-c2ccco2)cc1)Nc1n[nH]c2ccc(N3CCCS3(=O)=O)cc12 [Compound 39, N-[5-(1,1-dioxo-1λ^6-isothiazolidin-2-yl)-1H-indazol-3-yl]-2-[4-(2-furyl)phenyl]acetamide] | > 7.30 |
| O=C(CN1CCCCC1)Nc1n[nH]c2ccc(N3CCCS3(=O)=O)cc12 [Compound 32, N-[5-(1,1-dioxo-1λ^6-isothiazolidin-2-yl)-1H-indazol-3-yl]-2-(1-piperidinyl)acetamide] | > 5.00 |
